ChEMBL document CHEMBL1125529, “NMDA antagonist activity of (+/-)-(2SR,4RS)-4-(1H-tetrazol-5-ylmethyl)piperidine-2-carboxylic acid resides with the (-)-2R,4S-isomer” (J Med Chem, 1992)

How the values were obtained:
Glutamate NMDA receptor [1] = assay: Compound was tested for the antagonistic activity against depolarizations due to NMDA using rat cortical slice preparation; type: functional
Glutamate NMDA receptor [2] = assay: Ability to inhibit [3H]-CGS- 19755 binding to NMDA receptor; type: protein-complex assay

Row | IC50 (Glutamate NMDA receptor [1]) [µM] | IC50 (Glutamate NMDA receptor [2]) [µM] | Structure (SMILES)
1 | 4.2 | 0.107 | O=C(O)[C@H]1C[C@@H](Cc2nnn[nH]2)CCN1 (racemic)
2 | 1.9 | 0.067 | O=C(O)[C@H]1C[C@@H](Cc2nnn[nH]2)CCN1 (stereo in doubt)
3 | 39.1 | 2.39 | O=C(O)[C@H]1C[C@@H](Cc2nnn[nH]2)CCN1 (stereo in doubt; (+)-1)
